In experiment [1] the test system is L1210 cells. The conditions noted are these: 48 h incubation; data originally reported in Ref; cited from earlier work.
Experiment [2] addresses polyamine transporter (PAT). To be noted: data originally reported in Ref; read-out: L1210 Ki value; cited from earlier work.
Experiment [3] has as its system CHO-MG cells. The conditions noted are these: 48 h incubation; data originally reported in Ref; cited from earlier work.
Experiment [4] has as its system CHO cells. The conditions noted are these: data originally reported in Ref, cited from earlier work; for IC50: 48 h incubation.
Experiment [5] concerns Drosophila imaginal leg discs. Put plainly: Imaginal disc eversion assay. The format is cell-based, Drosophila melanogaster. To be noted: Drosophila melanogaster, 15 hr incubation in Robb's medium. How it is done: DihydroMotuporamine C, 4a, was used to develop an imaginal disc assay in Drosophila flies. The imaginal leg discs were collected by microscopic dissection from maggots. […] Inhibition was measured as failure of the disc to fully develop into a fly leg after 15 hr of incubation in Robb's growth medium. This presumably occurs by overactivation of Rho, an important signaling pathway in development. Hyper-stimulation of this pathway is sufficient to block development of the fly leg.
Fly Stocks: 20 female and 5 male wild type Oregon variant of Drosophila melanogaster interbred in blue food medium for 24 hours then flies are removed. Third instar wall-crawling larvae collected then dissected on the sixth day. Flies kept in 25° C. incubation chamber.
Blue Food Preparation: Standard corn meal medium heated then mixed completely with aqueous 1% Bromophenol Blue. The food medium is cooled for one day or more before use.
Dissection Medium: Ringer's Buffer with 10 uL 0.1% BSA. Ringer's Medium consists of 130 mM NaCl, 5 mM KCl, 1.5 mM CaCl2-2H2O, Stored at room temperature (23° C.), BSA added before dissection.
Cultivation Medium: Minimal Robb's Medium with 10 uL 0.1% BSA. Minimal Robb's Medium consists of 40 mM KCl, 0.4 mM KH2PO4, 40 mM NaCl, 0.4 mM NaH2PO4.7H2O, 1.2 mM MgSO4.7H2O, 1.2 mM MgCl2-6H2O, 1 mM CaCl2-2H2O, 10 mM Glucose, 0.2 mM L-asparagine, 4.0 mM L-glutamine, 0.16 mM Glycine, 0.64 mM L-leucine, 0.32 mM L-proline, 0.16 mM R-Serine, 0.64 mM L-valine. Stored at −25° C. One day before dissection, aliquot defrosted in 4° C. Add BSA then warmed to room temperature (23° C.) before dissection.
0.1% BSA: 0.1 g BSA fraction V (Sigma#A-9647) in 10 mL distilled H2O, Stored at 4° C.
Developmental Hormone: 1 mg 20-hydroxyecdysone (Sigma #H-5142) in 1 mL 100% Ethanol. Stored at −25° C. Before use, stock is diluted 10× (1 mL added to 9 mL of 100% Ethanol). 10 μL of diluted 20-hydroxyecdysone is added to culture.
Dissection Procedures: Third instar larvae are removed from cultivation bottle with a wetted brush and washed in dH2O to remove food medium clinging to larvae. The cleaned larvae are dissected in Ringer's Medium using forceps. The imaginal discs are washed in fresh Ringer's Medium, and then cultivated with 1 mL of Robb's Medium in 12-well culture plate. Each culture well should have 30˜40 imaginal discs.
Culturing Procedures: In a larger container, place the 12-well culture plate on a moist towel, then seal the large container. Cultivate at 25° C. for 15 hours. Evaluation: Three categories will be used to grade the eversion of each imaginal disc. Full Eversion—the leg is fully extended from the disc. Partial Eversion—the leg is protruding from the epithelial. No Eversion—no sign of any protrusion.

In experiment [6] the test system is L1210 cells. Put plainly: Cytotoxicity (cell growth, MTT) in L1210 cells. The format is cell-based, mouse. The source says: (§1) In terms of Table 1, L1210 cells are mouse leukemia cells and are the gold standard in terms of evaluating polyamine cytotoxicity data due to a plethora of prior data in this cell line for other polyamine structures. Clearly 7a was similar in all respects to 4a (Table 1). […] The lower the Ki value, the higher the affinity of the drug for the polyamine transporter (PAT) on the cell surface. Chinese hamster ovary (CHO) cells and a mutant line without an active PAT (CHO-MG) also evaluated the PAT selectivity of these drugs.
Biological Evaluation. Once synthesized, the conjugates were screened for cytotoxicity in L1210, CHO and CHO-MG cells. L1210 (mouse leukemia) cells were selected to enable comparisons with the published IC50 and Ki values for a variety of polyamine substrates. Chinese Hamster Ovary (CHO) cells were chosen along with a mutant PAT deficient cell line (CHO-MG) in order to comment on selective transport via the PAT (Wang et al, J. Med. Chem. 2003, 46, 2663-2671; Wang et al, J. Med. Chem. 2003, 46, 2672-2682; Wang et al., J. Med. Chem. 2003, 46, 5129-5138; Delcros et al., J. Med. Chem., 2002, 45, 5098-5111).
(§2) L1210 IC50 and Ki studies. […] The Ki values in Table 3 were determined for [^14C]spermidine uptake and reflect the affinity of the polyamine derivative for the polyamine transporter on the cell surface. With both parameters, one can determine whether high affinity for the transporter (e.g., low Ki value) translated into high cytotoxicity (e.g., low IC50 value), etc.
(§3) Biological studies. Murine leukemia cells (L1210), CHO and CHO-MG cells were grown in RPMI medium supplemented with 10% fetal calf serum, glutamine (2 mM), penicillin (100 U/mL), streptomycin (50 μg/mL). L-Proline (2 μg/mL) was added to the culture medium for CHO-MG cells. Cells were grown at 37° C. under a humidified 5% CO2 atmosphere. Aminoguanidine (AG, 2 mM) was added to the culture medium to prevent oxidation of the drugs by the enzyme (bovine serum amine oxidase) present in calf serum. Trypan blue staining was used to determine cell viability before the initiation of a cytotoxicity experiment. Cells in early to mid log-phase were used. IC50 determinations. Cell growth was assayed in sterile 96-well microtiter plates (Becton-Dickinson, Oxnard, Calif., USA). L1210 cells were seeded at 5e^4 cells/mL of medium (100 μL/well). CHO and CHO-MG cells were plated at 2e^3 cells/mL. Drug solutions (10 μL per well) of appropriate concentration were added at the time of seeding for L1210 cells and after an overnight incubation for the CHO cell lines. After exposure to the drug for 48 hr, cell growth was determined by measuring formazan formation from 3-(4,5-dimethylthiazol-2-yl)2,5-diphenyltetrazolium using a Titertek Multiskan MCC/340 microplate reader for absorbance (540 nm) measurements (Mosmann, T., J. Immunol. Methods 1983, 65, 55-63).

Experiment [7] deals with polyamine transporter (PAT). The experiment is described as follows: Ki for inhibition of [14C]spermidine uptake in L1210 cells. The format is cell-based, mouse. The conditions noted are these: [14C]spermidine uptake, 10-min, 1 μM substrate; read-out: L1210 Ki values.
Text: as §1, §2
Ki procedure. The ability of the conjugates to interact with the polyamine transport system was determined by measuring competition by the conjugates against radiolabeled spermidine uptake in L1210 cells. Initially, the Km value of spermidine transport was determined as previously described (Clément et al., Biochem. J. 1995, 312, 933-938). The ability of conjugates to compete for [^14C]spermidine uptake were determined in L1210 cells by a 10-min uptake assay in the presence of increasing concentrations of competitor, using 1 μM [^14C]spermidine as substrate. Ki values for inhibition of spermidine uptake were determined using the Cheng-Prusoff equation (Cheng and Prusoff, Biochem. Pharmacol. 1973, 22, 3099-3108) from the IC50 value derived by iterative curve fitting of the sigmoidal equation describing the velocity of spermidine uptake in the presence of the respective competitor (Torossian et al., Biochem. J., 1996, 319, 21-26). L1210 cells were grown and maintained according to established procedures (Bergeron et al., J. Med. Chem. 2000, 43, 224-235) and were washed twice in HBSS prior to the transport assay.

Experiment [8] deals with CHO-MG cells. Put plainly: Cytotoxicity in PAT-deficient CHO-MG cells. The format is cell-based, Chinese hamster.
Text: as §1
(§4) CHO and CHO-MG studies. Chinese hamster ovary (CHO) cells were chosen along with a mutant cell line (CHO-MG) in order to comment on how the synthetic conjugates gain access to cells. The CHO-MG cell line is polyamine-transport deficient and was isolated after selection for growth resistance to methylglyoxalbis(guanylhydrazone), MGBG, (CH3C[═N—NHC(═NH)NH2]CH[═N—NHC(═NH)NH2]) using a single-step selection after mutagenesis with ethylmethanesulfonate (Mandel et al., J. Cell. Physiol., 1978, 97, 335-344; Byers et al., Biochem. J. 1989, 263, 745-752).
For the purposes of this study, the CHO-MG cell line represents cells with no PAT activity and provided a model for alternative modes of entry or action, which are independent of PAT. These alternative modes of entry include passive diffusion or utilization of another transporter. The alternative modes of action may also include interactions on the outer surface of the plasma membrane or other membrane receptor interactions.
as §3, with “Aminoguanidine (AG, 2 mM) was added to the culture medium to prevent oxidation of the drugs by the enzyme (bovine serum amine oxidase) present in calf serum.” left out

Experiment [9] has as its system CHO cells. Put plainly: Cytotoxicity in CHO cells. The format is cell-based, Chinese hamster.
Text: as §1, §4
In contrast, the parent CHO cell line represents a cell type with high PAT activity. Comparison of conjugate cytotoxicity in these two CHO lines provided an important screen to detect selective conjugate delivery via the PAT. For example, a conjugate with high utilization of the polyamine transporter would be very toxic to CHO cells, but less so to CHO-MG cells. In short, highly-selective PAT ligands should give high (CHO-MG/CHO) IC50 ratios.
as §3, with “Aminoguanidine (AG, 2 mM) was added to the culture medium to prevent oxidation of the drugs by the enzyme (bovine serum amine oxidase) present in calf serum.” left out

Where two headings read alike, the source gives them in different places.

A word on the Ki: it is the dissociation constant of the complex between target and ligand, obtained from inhibition or displacement. `NCCCNCCCN1CCCCCCCCCCCCCC1` [Compound 4a, Dihydromotuporamine C, reference compound]: the IC50 was 3 µM with L1210 cells [1], 10 µM in the experiment on CHO-MG cells [3] and 10.5 µM with CHO cells [4]. In addition, in [2], the Ki is 9.9 µM. Further, the “IC50 Ratio (CHO-MG/CHO), a measure of PAT selectivity” value (“IC50 Ratio … of PAT selectivity” below) in the experiment on CHO cells [4] is 1.

One may read the inhibition as the percentage by which the read-out fell short of the control. For `NCCCNCCCNCc1c2ccccc2cc2ccccc12` [Compound 6a], in experiment [5], 18 µM produced 60% inhibition. In addition, the IC50 is 1.8 µM with L1210 cells [1], 3.4 µM in the experiment with CHO-MG cells [3] and 1.9 µM in the experiment with CHO cells [4]. Further, the Ki in experiment [2] is 33.4 µM. Moreover, the “IC50 Ratio … of PAT selectivity” value with CHO cells [4] is recorded as 1.8.

Regarding `CCN(CCCCNCCCCN)Cc1c2ccccc2cc2ccccc12` [Compound 7b, N-(4-Amino-butyl)-N′-anthracen-9-ylmethyl-N′-ethyl-butane-1,4-diamine], the IC50 in the experiment with L1210 cells [6] (Mus musculus, L1210 experiments, no added SPD, read-out: L1210 IC50) was 22.2 µM; with CHO-MG cells [3], 21.9 µM; with CHO cells [4], 22.2 µM. The compound also registered an inhibition at 18 µM in experiment [5] of 8%. For the same compound, in experiment [2], the inhibition constant (Ki) was 24.4 µM. In addition, the “IC50 Ratio … of PAT selectivity” value in the experiment with CHO cells [4] is on record as 1.

On to `CNCCCCNCCCCNCc1c2ccccc2cc2ccccc12` [Compound 28, N-Anthracen-9-ylmethyl-N′-(4-methylamino-butyl)-butane-1,4-diaine], for which the IC50 in the experiment on L1210 cells [6] (L1210 experiments, no added SPD, read-out: L1210 IC50) amounted to 0.4 µM; in the experiment with L1210 cells [6] (in the presence of AG, 48 h at 37° C., read-out: L1210 IC50) it was 0.4 µM; in the experiment with L1210 cells [6] (spermidine rescue, excess SPD (200 μM), read-out: L1210 IC50 in the presence of added SPD), 1.38 µM; with CHO-MG cells [8] (absence of AG, 48 h, read-out: CHO-MG IC50 w/o AG) it was 56.2 µM; in the experiment on CHO-MG cells [8] (in the presence of AG, 48 h at 37° C., read-out: CHO-MG IC50), 60 µM; in the experiment on CHO cells [9] (absence of AG, 48 h, read-out: CHO IC50 w/o AG), 4.89 µM. Besides, in the experiment on CHO cells [9] (in the presence of AG, 48 h at 37° C., read-out: CHO IC50), the IC50 is 4.88 µM. In addition, the Ki in experiment [7] came out at 8.2 µM. Besides, the “CHOMG/CHO IC50 ratio in the absence of AG” value in the experiment on CHO cells [9] (absence of AG) was 11.5. In the experiment on CHO cells [9] (absence of AG), the “IC50 Ratio (CHO-MG/CHO) w/o AG” value was found to be 11.5. Moreover, in the experiment on CHO cells [9] (in the presence of AG), the “IC50 Ratio … of PAT selectivity” value is 12.3. Also, the “IC50 Ratio (CHO-MG/CHO) with AG” value in the experiment on CHO cells [9] (with AG) is listed as 12.3.
